In assay [1] the test system is human endothelial cells (HUVEC cells). The experiment in a line: In-vitro inhibition of the interleukin-2 (Proleukin) induced VLS: spherical deformation of HUVEC cells. The format is cell-based. The settings on record: Proleukin in combination with 20 mM of substance, microscopic assessment after 4 to 6 days. As for the experimental part: In-vitro examinations on the inhibition of the VLS induced by interleukin-2. Using human endothelial cells (HUVEC cells) the inhibition of the IL-2 induced VLS through ectoine and hydroxyectoine was investigated in an in-vitro system. In this context the concentrations of Proleukin® (by Chiron) were determined that lead to the spherical deformation of the HUVEC cells. The spherical deformation of HUVEC cells is considered as a sign for the triggering of the VLS, cf. Baluna et al., PNAS 3957-3962, March 1999. Same as VLS, this phenotype visible under the light microscope is based on the bonding of membrane proteins, the integrins. The cells were incubated with Proleukin solely or in combination with ectoine and hydroxyectoine. To verify the specificity of the compatible solutes also trehalose and glucose were employed additionally. After 4 to 6 days the proportion of normal and spherically deformed cells of a visual field are determined by microscopic assessment.

Assay [2] concerns NK cells and T cells of healthy-blood donors. Put plainly: Proleukin-induced interferon-γ synthesis of human lymphocytes (ELISA of supernatant). It counts as cell-based. The note with it: 250 U Proleukin in combination with 20 mM hydroxyectoine, 48 hours, FIG. 2. The source says:
Effects of hydroxyectoine on the Proleukin-induced interferon-γ-synthesis of human lymphocytes.
interleukin-2, IL-2, same as Proleukin leads to the activation of immune effector cells which can be determined, inter alia, by an increased interferon-γ secretion of NK cells and T-lymphocytes.
For this purpose NK cells and T cells of healthy-blood donors were isolated by means of the MACS technique (Magnetic Cell Sorting, Milteniy). The of detection of the cells expressing the surface markers CE 56, NKG2D and CD 3 was brought about by FACS analyses.
The cells without further additives have been incubated for 48 hours with 250 U Proleukin or with 250 U Proleukin in combination with 20 mM hydroxyectoine. Following this, the concentration of interferon-γ was determined in the supernatant of the cells with the aid of ELISA (triple determinations from two independent experiments).
Background: In an ELISA, binding on a coated surface is turned into a signal by an enzyme label.

Consider `CC1=N[C@H](C(=O)O)CCN1` [ectoine, (4S)-2-methyl-1,4,5,6-tetrahydropyrimidine-4-carboxylic acid], for which the “reduction of the Proleukin-induced VLS phenotype (spherically deformed HUVEC cells; VLS inhibition percentage, FIG. 1)” value in assay [1] is recorded as “significantly reduce the VLS phenotype”.
`CC1=N[C@H](C(=O)O)[C@@H](O)CN1` [hydroxyectoine, (4S,5S)-5-hydroxy-2-methyl-1,4,5,6-tetrahydropyrimidine-4-carboxylic acid]: the “inhibition of the induction of interferon-γ synthesis (concentration of interferon-γ in the supernatant)” value in assay [2] was “does not inhibit the induction of the interferon-γ synthesis, on the contrary slightly increased values were found”. Moreover, the “reduction of the Proleukin-induced VLS phenotype (spherically deformed HUVEC cells; VLS inhibition percentage, FIG. 1)” value in assay [1] is listed as “significantly reduce the VLS phenotype”.

The values are drawn from US20100048900A1, “AGENT FOR TREATMENT OF VASCULAR LEAKS” (priority 2006, published 2010).
